Our source for the Ki values is US20240409532A1, “BIPHENYL SULFONAMIDES AS DUAL ANGIOTENSIN ENDOTHELIN RECEPTOR ANTAGONISTS” (Chongqing Hongyuantang Medicine Co., Ltd., priority 2023, published 2024).

The target in the experiment is T1, ETA receptor (Rattus norvegicus, UniProt P26684).
T1 construct: evaluated in isolated rat aortic ring; from tissue; host or cells: isolated rat aortic ring
T1 sequence (P26684 21-426): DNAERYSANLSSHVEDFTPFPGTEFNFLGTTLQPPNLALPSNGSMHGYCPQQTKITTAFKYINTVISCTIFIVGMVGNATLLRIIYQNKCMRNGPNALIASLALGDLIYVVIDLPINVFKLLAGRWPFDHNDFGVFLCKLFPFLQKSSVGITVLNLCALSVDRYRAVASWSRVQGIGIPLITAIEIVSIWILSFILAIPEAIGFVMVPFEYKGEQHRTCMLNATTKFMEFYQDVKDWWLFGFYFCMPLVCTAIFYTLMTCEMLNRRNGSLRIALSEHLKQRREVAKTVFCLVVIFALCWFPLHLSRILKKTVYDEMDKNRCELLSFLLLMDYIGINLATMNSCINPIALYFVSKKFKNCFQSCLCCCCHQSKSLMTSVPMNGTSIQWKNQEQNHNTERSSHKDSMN
The experiment in a line: In vitro evaluation of inhibitory activity against ETA receptor (isolated rat aortic ring, literature procedure). Format: biochemical. Conditions: telmisartan as control. The procedure: The biological activity of compounds was evaluated in isolated rat aortic ring and in systemic arterial pressure (SAP) of anesthetized rat experiments using the literature procedures in Chinese Pharmacological Bulletin 2008, 24 (11): 1422-1426.
Telmisartan, as an AT1 receptor antagonist approved for marketing by the US FDA in 1998, was used as a control to evaluate the inhibitory activity of AT1 and ETA receptors.
With `CCOCc1cc(Cn2c(C)nc3c(C)cc(-c4nc5ccccc5n4C)cc32)ccc1-c1ccccc1S(=O)(=O)Nc1noc(C)c1C` [Compound 1-4], the Ki is above 102 nM.

`CCOCc1cc(Cn2c(CC)nc3c(C)cc(-c4nc5ccccc5n4C)cc32)ccc1-c1ccccc1S(=O)(=O)Nc1noc(C)c1C` [Compound 1-7, N-(4,5-dimethylisoxazol-3-yl)-2′-(ethoxymethyl)-4′-((2′-ethyl-1,7′-dimethyl-1H,3′H-[2,5′-bibenzo[d]imidazol]-3′-yl)methyl)-[1,1′-biphenyl]-2-sulfonamide] returned an inhibitory constant (Ki) of 13.2 ± 3.3 nM.

`CCCc1nc2c(C)cc(-c3nc4ccccc4n3C)cc2n1Cc1ccc(-c2ccccc2S(=O)(=O)Nc2noc(C)c2C)c(COCC)c1` [Compound 1-10, 4′-((1,7′-dimethyl-2′-propyl-1H,3′H-[2,5′-bibenzo[d]imidazol]-3′-yl)methyl)-N-(4,5-dimethylisoxazol-3-yl)-2′-(ethoxymethyl)-[1,1′-biphenyl]-2-sulfonamide] gave a Ki of 6.8 ± 1.8 nM.

Molecule `CCCCc1nc2c(C)cc(-c3nc4ccccc4n3C)cc2n1Cc1ccc(-c2ccccc2S(=O)(=O)Nc2noc(C)c2C)c(COCC)c1` [Compound 1-13, 4′-((2′-butyl-1,7′-dimethyl-1H,3′H-[2,5′-bibenzo[d]imidazol]-3′-yl)methyl)-N-(4,5-dimethylisoxazol-3-yl)-2′-(ethoxymethyl)-[1,1′-biphenyl]-2-sulfonamide] yielded a Ki of 7.2 ± 2.1 nM.

Turning to `CCCc1nc2c(C)cc(-c3nc4ccccc4n3C)cc2n1Cc1ccc(-c2ccccc2S(=O)(=O)Nc2onc(C)c2C)c(COCC)c1` [Compound 2-3, 4′-((1,7′-dimethyl-2′-propyl-1H,3′H-[2,5′-bibenzo[d]imidazol]-3′-yl)methyl)-N-(3,4-dimethylisoxazol-5-yl)-2′-(ethoxymethyl)-[1,1′-biphenyl]-2-sulfonamide], the Ki is 8.8 ± 2.2 nM.

The molecule `CCCCc1nc2c(C)cc(-c3nc4ccccc4n3C)cc2n1Cc1ccc(-c2ccccc2S(=O)(=O)Nc2onc(C)c2C)c(COCC)c1` [Compound 2-5, 4′-((2′-butyl-1,7′-dimethyl-1H,3′H-[2,5′-bibenzo[d]imidazol]-3′-yl)methyl)-N-(3,4-dimethylisoxazol-5-yl)-2′-(ethoxymethyl)-[1,1′-biphenyl]-2-sulfonamide] came in with a Ki of 9.2 ± 2.3 nM.

Turning to `CCCc1nc2c(C)cc(-c3nc4ccccc4n3C)cc2n1Cc1ccc(-c2ccccc2C(=O)O)cc1` [Telmisartan, reference compound], the inhibition constant Ki is above 103 nM.
